Assay results from patent US20230201174A1, “COMBINATION OF FINERENONE AND A SGLT2 INHIBITOR FOR THE TREATMENT AND/OR PREVENTION OF CARDIOVASCULAR AND/OR RENAL DISEASES” (BAYER AKTIENGESELLSCHAFT, priority 2020, published 2023).

How the values were obtained:
[1] = tested on: Wistar rats with activated renin-angiotensin-aldosterone system; assay: In vivo assay for detecting natriuretic activity in conscious rats with activated RAAS; set-up: species or system rat; details: for Urinary Glucose concentration / Urinary K+ concentration / Urinary Volume/ body weight / Urinary Na+ concentration: Table 2, 24 h urine, mean ± SEM
Description: Wistar rats (ca. 250-500 g body weight) were kept with free access to feed (Altromin) and drinking water. […] This sodium-reduced feed causes an activation of the RAAS in the animals during the 3 days run-in phase and therefore mimics a neuroendocrine activation which is characteristic for cardiorenal diseases. […] At the start of the test, the substance to be tested was administered by means of gavage in a volume of 2-3 ml/kg of body weight of a suitable solvent PEG400). Control animals received only solvent (‘S’ or solvent in table 2 below). Controls and substance tests were carried out in parallel on the same day. Control groups and substance-dose groups each consisted of 6 to 10 animals. During the test, the urine excreted by the animals was continuously collected in a receiver on the base of the cage.
In this comparison, eight different administrations were performed (cf. groups A to H):
Group A received the solvent (PEG400) only. This group serves as control group.
Groups B, C and D received three increasing dosages of empagliflozin (SGLT2 inhibitor) only. It serves to detect the effects of the monotherapy with SGLT2 inhibitor.
Group E received a finerenone only. It serves to detect the effect of the monotherapy with finerenone.
Groups F, G and H received finerenone and the three doses of SGLT2 inhibitor in combination, respectively. It serves to detect the effect of the combined therapy with finerenone and empagliflozin (SGLT2 inhibitor) (combination according to the invention).
(§1) After the treatment, the urinary volume, urinary glucose, urinary sodium and potassium concentrations were measured.

[2] = tested on: hypertensive and proteinuric L-NAME treated renin-transgenic (mRen2)27 rats; assay: Non-diabetic cardiorenal rat model: L-NAME treated renin-transgenic (mRen2)27 rats; details: up to 7 weeks
Description: Cardiorenal morbidity and mortality was studied in hypertensive and proteinuric L-NAME (20 mg/L) treated renin-transgenic (mRen2)27 rats. […] Key outcome parameters included mortality, blood pressure, proteinuria, kidney histology and gene expression.
Female TGR(mRen2)27 renin rats aged 10 to 20 weeks are randomized to different pharmacological treatment groups and a placebo group. In addition, the nitrogen monoxide synthase inhibitor L-NAME is administered via the drinking water in a concentration of 20 to 100 mg/l. During the entire experiment, drinking water and feed are available ad libitum to the animals. The substances are administered via the feed or daily by gavage for 4-10 weeks. Animals treated in the same way but receiving either only the solvent or the feed without test substance serve as placebo group. During the experiment, the systolic blood pressure is determined at regular intervals using a tail cuff, and proteinuria (expressed as ratio of urinary protein concentration per urinary creatinine concentration) and urine electrolyte composition are determined by collecting the urine in metabolic cages, and mortality is registered on a daily base.
The urine volume per collection time was determined separately for each animal, and the concentration of urinary glucose and electrolyte ions excreted in the urine was measured by standard methods by a clinical-chemical analyzer system (ADVIA 2400, Siemens). The urine was typically collected for 24 hours in metabolic cages.

[3] = tested on: Zucker diabetic fatty (ZDF) rats; assay: In vivo assay for detecting natriuretic activity in chronically treated Zucker diabetic fatty rats; set-up: species or system rat; details: for Urinary Glucose concentration / Urinary K+ concentration / Urinary Na+ concentration / Urinary Volume/ body weight: Table 3, 24 h urine, mean ± SEM
From the text: The Zucker diabetic fatty (ZDF) rat has a missense mutation in the gene coding the leptin receptor (fa/fa) and spontaneously develops insulin resistance, type 2 diabetes mellitus (T2DM), hyperlipidemia, moderate hypertension, and obesity, as well as progressive renal injury. Male homozygous animals develop diabetes mellitus from week 7 to 19 which is reflected in marked hyperglycemia. In addition to diabetic cardiac lesions (e.g. hypertrophy), renal pathology develops with proteinuria, mesangial expansion, macrophage infiltration, and interstitial fibrosis. Heterozygous animals are useful non-diabetic control animals since they develop neither obesity nor insulin resistance.
Male 6-7 weeks old obese (fa/fa) Zucker rats (Charles River) were placed on a high energy diet (Purina Rodent LabDiet 5008, PMI Nutrition. Richmond. Ind.) and were randomized to treatment groups or solvent group when the animals were hyperglycemic. Rats (n=14-16/group) received either solvent [ethanol/Solutol/H2O (10/40/50)] or test compounds in solvent once daily applied to (fa/fa) animals for 4 to 12 weeks.
During the experiment, the systolic blood pressure (determined by tail cuff), urine parameters (e.g. protein, glucose, electrolytes, creatinine, urea and uric acid) and blood plasma parameters (e.g. electrolytes, glucose, creatinine, urea and uric acid) were determined at regular intervals.
Histopathology is performed with cardiac and renal tissue from animals of treatment groups and placebo groups.
In this comparison, six different administrations were performed:
Group A received the solvent [ethanol/Solutol/H2O (10/40/50)] only. This group serves as control group.
Groups B and C received two increasing dosages of empagliflozin (SGLT2 inhibitor) only. It serves to detect the effects of the monotherapy with empagliflozin (SGLT2 inhibitor).
Groups D and E received increasing dosages of finerenone only. It serves to detect the effect of the monotherapy with finerenone.
Group F received a combination of the low dosages of empagliflozin (SGLT2 inhibitor) and finerenone, respectively. It serves to detect the effect of the combined therapy with finerenone and empagliflozin (SGLT2 inhibitor) (combination according to the invention).
as §1

[4] = Table 2 study, monotherapy: empagliflozin 1, 3, 10 mg/kg, finerenone 1 mg/kg
[5] = ZDF rats treated 9 weeks, monotherapy 3 mg/kg
[6] = ZDF rats treated 9 weeks, monotherapy 10 mg/kg
[7] = ZDF rats, chronic monotherapy 3 and 10 mg/kg/day, 9 weeks

## OC[C@H]1O[C@@H](c2ccc(Cl)c(Cc3ccc(O[C@H]4CCOC4)cc3)c2)[C@H](O)[C@@H](O)[C@@H]1O [empagliflozin, (2S,3R,4R,5S,6R)-2-[4-chloro-3-[[4-[(3S)-oxolan-3-yl]oxyphenyl]methyl]phenyl]-6-(hydroxymethyl)oxane-3,4,5-triol]
[1]; monotherapy 1 mg/kg oral
  Urinary Glucose concentration: 0.34 ± 0.10 mmol
  Urinary K+ concentration: 1.66 ± 0.11 mmol
  Urinary Volume/ body weight: 0.0278 ± 0.00358 L/kg
[1]; monotherapy 3 mg/kg oral
  Urinary Glucose concentration: 1.21 ± 0.21 mmol
  Urinary K+ concentration: 1.74 ± 0.15 mmol
  Urinary Na+ concentration: 0.13 ± 0.02 mmol
  Urinary Volume/ body weight: 0.02296 ± 0.00275 L/kg
[1]; monotherapy 10 mg/kg oral
  Urinary Glucose concentration: 4.26 ± 0.59 mmol
  Urinary K+ concentration: 1.85 ± 0.11 mmol
  Urinary Na+ concentration: 0.17 ± 0.03 mmol
  Urinary Volume/ body weight: 0.02845 ± 0.00191 L/kg
[1]; [4]
  influence on urinary glucose, in words: dose-dependent and strong increase
  influence on urinary potassium, in words: no influence
  influence on urinary sodium, in words: no influence
  influence on urinary volume, in words: no influence
[2]; 3 mg/kg once daily orally
  proteinuria reduction: −38%
[2]; 10 mg/kg once daily orally
  proteinuria reduction: −64%
[2]; once daily orally
  glucosuric action, in words: strongly glucosoric
  renal histology parameters / renal lesions, in words: comparable protection from renal lesions at higher dosages
[3]; [5]
  Urinary Glucose concentration: 321.55 ± 22.78 mmol
  Urinary K+ concentration: 2.22 ± 0.13 mmol
  Urinary Na+ concentration: 1.47 ± 0.10 mmol
  Urinary Volume/ body weight: 0.09998 ± 0.00712 L/kg
  urinary sodium excretion higher in comparison to solvent control group A: 27.2%
[3]; [6]
  Urinary Glucose concentration: 317.16 ± 25.10 mmol
  Urinary K+ concentration: 2.64 ± 0.20 mmol
  Urinary Na+ concentration: 2.05 ± 0.27 mmol
  Urinary Volume/ body weight: 0.11038 ± 0.00455 L/kg
[3]; [7]
  influence on urinary glucose vs solvent, in words: increases
  influence on urinary potassium vs solvent, in words: increases
  influence on urinary sodium vs solvent, in words: increases
  influence on urinary volume vs solvent, in words: increases
